For one series, the system named is leukemia cell lines. Conditions: cited from earlier work.
Series [1] concerns SARS-CoV-2 isolate USA-WA1/2020. The series can be described thus: microbe, parasite or virus in culture. In kind it is cell-based.
A short description of series [2]: Classic IV diagnostic use of RB, blood concentration. It is filed as in vivo, human. Particulars: 100 mg single IV bolus, blood volume approximately 5 L (also approximately 20 μM). The procedure: Based on a molecular weight of 1018 g/mole for disodium RB, the classic IV diagnostic use of RB, conducted by giving 100 mg RB as a single IV bolus to adults with a standard blood volume of approximately 5 L, achieved a concentration of approximately 20 mg/L in the blood, or approximately 20 μM RB. Exposure at such a level would have minimal direct cytotoxic effect on solid tumor or hematologic malignancies, as illustrated by the results of Swift et al. 2019 or Swift et al. 2018, above.

The nature of series [3]: Clinical studies of PV-10 delivered intratumorally. It is filed as in vivo, human. The method, then:
In clinical studies of PV-10 (10% disodium RB in saline for injection), RB has been tolerated at a bolus dose of 1500 mg upon intravasation when delivered intratumorally; this equates to an exposure of approximately 300 mg/L in the bloodstream (300 μM RB).

Series [4] relates to SARS-CoV-2 viral envelope protein (E gene) vRNA. Nature of the series: qPCR of viral RNA (E gene) after RB treatment. It is filed as cell-based. On the technique in general: Quantitative PCR measures a nucleic acid by following its amplification.
The test system of another series is THP-1 AML cells. The series can be described thus: Cytokine/chemokine Bio-Plex assay of THP-1 AML culture supernatants. In kind it is cell-based. Conditions: RB 100 μM. The procedure:
(§1) These studies were carried out using RB at 100 μM, or about 0.01% RB. Cytokine assays were carried out prior to the addition of RB to the cell culture medium (0), and at 8, 24 and 48 hours thereafter.
(§2) Proteins that associate with STING in the presence of RB were purified by immunoprecipitation and analyzed by mass spectrometry (LC-MS/MS). The culture supernatants from RB-treated cells were probed for a panel of 42 immune cytokines using the Bio-Plex® multiplex bead-based assay system (Bio-Rad Laboratories, Inc.).

The conditions of series [5]: cited from earlier work.
In series [6] the test system is SARS-CoV-2. It is filed as cell-based. Particulars: Calu-3 cells, 48-hour RB contact; read-out: EC50 (viral titer).
The next series relates to Vero cells. Conditions: 48 hours.
The conditions of series [7]: humans, intravenous; cited from earlier work.
For another series, the system named is young male Wistar rats. Conditions: cited from earlier work.
For series [8], the system named is SARS-CoV-2.
The conditions of series [9]: cited from earlier work. This is another data set of the same source.
Series [10] in a line: Plasma protein binding, ultracentrifugation method, human plasma. It is filed as in vitro ADME. From the text: (§3) In normal rats, 75-80% of the RB was recovered from the albumin fraction and the remaining 20-25% in other protein fractions [Tsao et al. 1988, supra; and Meurman, Acta medica Scan, Supp 167, Chapters I, III, V, VII, X and XII (1960)].
Another series has as its system STING. Nature of the series: STING dimerization by Western blot in THP-1 AML cells. It is filed as cell-based. The procedure: Cells were treated with RB and the induction of STING was evaluated by Western blot analysis using cyclic guanosine monophosphate-adenosine monophosphate (cGAMP) as a positive control.
as §1, §2
A general note: In western blotting, separated proteins are transferred to a membrane and probed.

Series [11] is described as follows: Plasma protein binding, ultracentrifugation method, rat plasma. In kind it is in vitro ADME.
Text: as §3

For series [12] the following is noted: in vivo; cited from earlier work.
For a further series, the system named is progressive COVID-19. Particulars: cited from earlier work.
For series [13] the following is noted: package insert; cited from earlier work.
The mark [14] stands for this setting: oral 300 mg/kg/day, young male Wistar rats.
Where [15] appears, read: rats, similar concentrations for comparators.

Values after ≈ are worked out from the molar mass of the structure shown. Like-named read-outs stand apart in the source and are kept apart here. A value given as a limit tells only on which side of the number the result lay.

The source of these data is patent US11975106B2, “Uses of halogenated xanthenes in oncology and virology” (Provectus Pharmatech, Inc., priority 2020, dated 2024).

Take `O=C1OC2(c3cc(I)c(O)c(I)c3Oc3c2cc(I)c(O)c3I)c2c(Cl)c(Cl)c(Cl)c(Cl)c21` [RB, 4,5,6,7-tetrachloro-2′,4′,5′,7′-tetraiodofluorescein]: the IC50 (usually the concentration needed to halve the response being measured) in the series with leukemia cell lines (primary pediatric leukemia cell lines) is 92.8 µM; with leukemia cell lines (refractory (relapsed) pediatric leukemia cell lines) it was 122 µM; in [1] (RB alone, 2 hours of contact, Vero C1008, read-out: IC50 for inhibition), 67 µM; in [1] (RB plus 0.15 μM remdesivir, 2-hour RB contact, Vero C1008, read-out: IC50 for inhibition) it was 47.4 µM. The “concentration in the blood” value in [2] is reported as “approximately 20 mg/L”. In addition, the “exposure in the bloodstream” value in [3] (at 1500 mg bolus (printed also as 300 μM RB)) is given as “approximately 300 mg/L”. In [3] (upon intravasation when delivered intratumorally as PV-10), this molecule gave a tolerated bolus dose of 1500 mg. In series [4], the “cycle threshold (ct) of sub-genomic viral RNA” value is recorded as “higher ct values”. Also, the “viral E gene copy numbers / viral production” value in series [4] (RB added after the virus has been incubated with the cells) is recorded as “no effect”. The “viral E gene copy numbers” value was “reduction compared to control” in series [4] (virus and RB added at the same time); “lower copy numbers” in series [4] (virus pre-treated with RB 0.6 μM, 1 hour, p<0.05). In addition, the “increase in IL-6” value with THP-1 AML cells (24 hours following exposure) is recorded as “approximately 10 fold”. Also, the “increase in IL-8” value in the series with THP-1 AML cells (24 hours following exposure) is “approximately 10 fold”. For the same molecule, the “increase in IP-10” value in the series on THP-1 AML cells (24 hours following exposure) was “approximately 10 fold”. In the series on THP-1 AML cells, the MCP-1 levels result is recorded as “significant increase”. In addition, the “induction of IFN gamma” value with THP-1 AML cells (peak at 24 hours) is recorded as greater than 2 fold. Moreover, in the series on THP-1 AML cells (peak at 24 hours), the “induction of MCP-3” value is listed as greater than 2 fold. In addition, the bound in serum entry in [5] (equilibrium dialysis, serum from rats lacking serum albumin) is “more than 99.8%”. Besides, the “recovered from the albumin fraction” value in series [5] (normal rats) is listed as 75-80%. Moreover, the “recovered in other protein fractions” value in series [5] (normal rats) is 20-25%. In addition, the results for the EC50 in the series on SARS-CoV-2 [6] and in the series with SARS-CoV-2 [8] (read-out: EC50 (viral titer)) were 0.015 µM and 0.054 µM, respectively. Moreover, in the series with Vero cells, the half-maximal cytotoxic concentration (CC50) (commonly the concentration that lowers cell viability or growth by half) was determined as 175 µM. Besides, the circulatory half-life result in series [7] is recorded as “about 30 minutes”. In addition, the “influence on growth rate” value with young male Wistar rats (setting [14]) is “no influence”. The relative liver weight entry with young male Wistar rats (setting [14]) is on record as “significant decrease”. Besides, in the series on young male Wistar rats (setting [15]), the “H^3-UTP incorporation into RNA or RNA content in liver nuclei (RNA synthesis in vivo)” value was “No effect”. The “SI (CC50/EC50)” value in the series on SARS-CoV-2 [8] (Vero cells, 48 hours) is 3211. In the series on SARS-CoV-2 [8] (Vero cells, approximately 1 to 100 μM RB, 48 hours of contact), the “inhibition in viral titers” value is “complete inhibition”. Besides, the solubility (in general, the concentration that dissolves in the medium under given conditions) in series [9] (in 2-methoxyethanol (printed also as 6%)) was 60 mg/mL (≈ 61.6 mM); in [9] (in ethanol (printed also as 3%)) it was 30 mg/mL (≈ 30.8 mM); in series [9] (in water (printed also as 10%)), no less than 100 mg/mL. For the same molecule, the plasma protein binding in series [10] (1 μM) is 99.8%; in [10] (10 μM), 99.9%; in [11], 99.2%; in [11] (1 μM), 99.0%. The “STING dimerization (Western blot)” value in the series on STING (RB at 100 μM) is recorded as “new about 70-KD STING dimer band”. The “induction of PDL-1” value in the series on STING (compared to cGAMP controls) was “no induction”.

On to `CCC(CC)COC(=O)[C@H](C)N[P@](=O)(OC[C@H]1O[C@@](C#N)(c2ccc3c(N)ncnn23)[C@H](O)[C@@H]1O)Oc1ccccc1` [remdesivir, reference compound], for which the EC50 (as a rule, the concentration giving half of the maximal effect) in series [1] (Severe acute respiratory syndrome coronavirus 2, Vero C1008, read-out: EC50 (percent plaque forming unit)) turned out to be 0.86 µM. Further, the half-maximal inhibitory concentration (IC50) in [1] (Severe acute respiratory syndrome coronavirus 2, Vero C1008, read-out: IC50 (percent inhibition)) was 0.86 µM. For the same molecule, the half-life entry in series [12] is listed as “about 0.89 hours”.

As for `Cc1cc(C)c(N=Nc2c(O)c(S(=O)(=O)[O-])cc3cc(S(=O)(=O)[O-])ccc23)cc1C.[Na+].[Na+]` [Ponceau 3R, reference compound], in the series with young male Wistar rats (setting [15]), the “H^3-UTP incorporation into RNA or RNA content in liver nuclei (RNA synthesis in vivo)” value is on record as “stimulate RNA synthesis”.

As for “tocilizumab: immunosuppressive humanized monoclonal antibody against the interleukin-6 receptor”, the death rate ratio with progressive COVID-19 (28-day mortality, 95% CI 0.77-0.96, p=0.007) is 0.86. Further, the “proportional reduction in 28-day mortality” value in the series on progressive COVID-19 (about 4000 hospitalized patients, progressive COVID-19) is on record as 13%.

Turning to “Yervoy®: immune checkpoint inhibitor monoclonal antibody”, the “terminal t1/2” value in series [13] is on record as 15.4 days.

On to `N#C[C@@]1(c2ccc3c(N)ncnn23)O[C@H](CO)[C@@H](O)[C@H]1O` [GS-441524], for which the half-life entry in series [12] is recorded as “about 25 hours”.

In the case of `O=S(=O)([O-])c1ccc2c(N=Nc3ccc(S(=O)(=O)[O-])c4ccccc34)c(O)c(S(=O)(=O)[O-])cc2c1.[Na+].[Na+].[Na+]` [Amaranth, reference compound], the “H^3-UTP incorporation into RNA or RNA content in liver nuclei (RNA synthesis in vivo)” value in the series on young male Wistar rats (rat, in vivo) is recorded as “stimulate RNA synthesis”.
